ChEMBL document CHEMBL1201862, “PubChem BioAssay data set” (2004)
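The compound was tested at five concentrations on cells cultured in 96-well plates, with a 48-hour exposure period. Abbreviation: GI50, concentration required for 50% inhibition of growth.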 The source made the active and inactive calls. Rule as the data show it: active = GI50 up to about 1.1 µM and inactive = higher.

What was measured:
Test in all cases: inhibition of tumour cell growth, NCI panel, 48 h
CAKI-1 = system: CAKI-1
SF-539 = system: SF-539
SR = system: SR
ACHN = system: ACHN
LOX IMVI = system: LOX IMVI
TK-10 = system: TK-10
T47D = system: T47D
HT-29 = system: HT-29
SF-268 = system: SF-268
UO-31 = system: UO-31
SF-295 = system: SF-295
SNB-19 = system: SNB-19
SK-OV-3 = system: SK-OV-3
NCI/ADR-RES = system: NCI/ADR-RES
SK-MEL-2 = system: SK-MEL-2
SK-MEL-5 = system: SK-MEL-5
OVCAR-5 = system: OVCAR-5
COLO 205 = system: COLO 205
MCF7 = system: MCF7
MDA-MB-435 = system: MDA-MB-435

Row | Compound | GI50 (CAKI-1) | GI50 (SF-539) | GI50 (SR) | GI50 (ACHN) | GI50 (LOX IMVI) | GI50 (TK-10) | GI50 (T47D) | GI50 (HT-29) | GI50 (SF-268) | GI50 (UO-31) | GI50 (SF-295) | GI50 (SNB-19) | GI50 (SK-OV-3) | GI50 (NCI/ADR-RES) | GI50 (SK-MEL-2) | GI50 (SK-MEL-5) | GI50 (OVCAR-5) | GI50 (COLO 205) | GI50 (MCF7) | GI50 (MDA-MB-435)
1 | COC(=O)/C(C#N)=C1\NC(=O)CC(c2ccccc2)C1C#N (stereo unspecified) | > 100 µM (inactive) | > 100 µM (inactive) | > 100 µM (inactive) | > 100 µM (inactive) | > 100 µM (inactive) | > 100 µM (inactive) | > 100 µM (inactive) | > 100 µM (inactive) | > 100 µM (inactive) | > 100 µM (inactive) | > 100 µM (inactive) | > 100 µM (inactive) | > 100 µM (inactive) | > 100 µM (inactive) | > 100 µM (inactive) | > 100 µM (inactive) | > 100 µM (inactive) | > 100 µM (inactive) | > 100 µM (inactive) | 
2 | CC1C2CC(CC(=O)N2)C1(C)C (stereo unspecified) | > 100 µM (inactive) | > 100 µM (inactive) |  | > 100 µM (inactive) |  | > 100 µM (inactive) | > 100 µM (inactive) | > 100 µM (inactive) | > 100 µM (inactive) | > 100 µM (inactive) | > 100 µM (inactive) | > 100 µM (inactive) | > 100 µM (inactive) |  |  | > 100 µM (inactive) | > 100 µM (inactive) | > 100 µM (inactive) | > 100 µM (inactive) | > 100 µM (inactive)
3 | NNC(=O)c1nnn(N)c1S | 84.5 µM (inactive) | > 100 µM (inactive) |  | > 100 µM (inactive) | 79.6 µM (inactive) | > 100 µM (inactive) | > 100 µM (inactive) | > 100 µM (inactive) | > 100 µM (inactive) | > 100 µM (inactive) | > 100 µM (inactive) |  | > 100 µM (inactive) | > 100 µM (inactive) | > 100 µM (inactive) | > 100 µM (inactive) | > 100 µM (inactive) | > 100 µM (inactive) |  | > 100 µM (inactive)
4 | CC(=O)C(CN(C(C)C)C(C)C)C(c1ccccc1)c1c(O)c2ccccc2oc1=O (stereo unspecified) | > 100 µM (inactive) | > 100 µM (inactive) | > 100 µM (inactive) | > 100 µM (inactive) | > 100 µM (inactive) | > 100 µM (inactive) |  | > 100 µM (inactive) | > 100 µM (inactive) | > 100 µM (inactive) | > 100 µM (inactive) | > 100 µM (inactive) | > 100 µM (inactive) |  | > 100 µM (inactive) | > 100 µM (inactive) | > 100 µM (inactive) | > 100 µM (inactive) |  | 
5 | CC(C(=O)c1ccncc1)c1ccccn1 (stereo unspecified) | > 100 µM (inactive) |  |  | > 100 µM (inactive) | > 100 µM (inactive) | > 100 µM (inactive) | > 100 µM (inactive) | > 100 µM (inactive) | > 100 µM (inactive) | > 100 µM (inactive) | > 100 µM (inactive) | > 100 µM (inactive) | > 100 µM (inactive) | > 100 µM (inactive) | > 100 µM (inactive) | > 100 µM (inactive) | > 100 µM (inactive) | > 100 µM (inactive) | > 100 µM (inactive) | > 100 µM (inactive)
6 | COc1cc(/C=C2\[C@@H]3NC(Cc4c(OC)c(C)c(OC)c(OC)c43)C(=O)N2Cc2ccccc2)c(OC)c(C)c1OC | 48 µM (inactive) | 66.4 µM (inactive) | 25 µM (inactive) | 44 µM (inactive) | 42.7 µM (inactive) | 40.6 µM (inactive) |  | 24.9 µM (inactive) | 59.3 µM (inactive) | 27 µM (inactive) | 40.8 µM (inactive) | 80.5 µM (inactive) | 26.2 µM (inactive) |  | 19.9 µM (inactive) | 34.1 µM (inactive) | 41.3 µM (inactive) | 15 µM (inactive) |  | 
7 | NC(Cc1ccc(B(O)O)cc1)C(=O)NC(CO)CO (stereo unspecified) | > 100 µM (inactive) | > 100 µM (inactive) | > 100 µM (inactive) | > 100 µM (inactive) | > 100 µM (inactive) | > 100 µM (inactive) |  | > 100 µM (inactive) | > 100 µM (inactive) | > 100 µM (inactive) | > 100 µM (inactive) | > 100 µM (inactive) | > 100 µM (inactive) | > 100 µM (inactive) | > 100 µM (inactive) | > 100 µM (inactive) | > 100 µM (inactive) | > 100 µM (inactive) |  | > 100 µM (inactive)
8 | C=C1C[C@H]2C=Nc3cc(OCCCOc4cc5c(cc4OC)C(=O)N4CC(=C)C[C@H]4C=N5)c(OC)cc3C(=O)N2C1 [SJG-136] | < 0.01 µM (active) | < 0.01 µM (active) | < 0.01 µM (active) | < 0.01 µM (active) | < 0.01 µM (active) | 0.0316 µM (active) | < 0.01 µM (active) | 0.0147 µM (active) | 0.000832 µM (active) | 0.0208 µM (active) | < 0.01 µM (active) | < 0.01 µM (active) | 0.0216 µM (active) |  |  | < 0.01 µM (active) |  | < 0.01 µM (active) | 0.012 µM (active) | 
